From US20150125889A1, “IN VITRO DETECTION OF MICROORGANISMS WITH AZOREDUCTASE ACTIVITY” (BIOMÉRIEUX, priority 2012, published 2015)

Key:
Test in all cases: Reduction of azo substrates over 24 hours at 35° C., microtitration plate (Example 1)
Assay type in all cases: cell-based
[1] = system: Cronobacter muytjensii; set-up: key to RED (substrate reduced or not): RED indicates whether the substrate is reduced (Y) or not (N); RED indicates whether the substrate is reduced (Y) or not (N); key to Co (growth, absorbance at 660 nm) / Decol (substrate decolourized, decrease in absorbance) / Fluo (fluorescence multiplied by 2 relative to substrate-free control): The symbol “+” means good growth/decolourization/significant increase in fluorescence; The symbol “+/−” means difficult growth; The symbol “−” means that there is no growth/decolourization/significant increase in fluorescence; conditions: E. muytjensii, substrate 35 mg/l
Method in brief: (§1)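 Each species is represented by a single strain inoculated at 0.5 McFarland into Trypcase soya broth with substrate at 35 mg/l. Plates are read continuously at 35° C. over 24 hours. A substrate counts as reduced when absorbance falls or fluorescence doubles relative to a substrate-free control.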

[2] = system: Geotrichum candidum; set-up: key to RED (substrate reduced or not): RED indicates whether the substrate is reduced (Y) or not (N); RED indicates whether the substrate is reduced (Y) or not (N); key to Co (growth, absorbance at 660 nm) / Decol (substrate decolourized, decrease in absorbance) / Fluo (fluorescence multiplied by 2 relative to substrate-free control): The symbol “+” means good growth/decolourization/significant increase in fluorescence; The symbol “+/−” means difficult growth; The symbol “−” means that there is no growth/decolourization/significant increase in fluorescence; conditions: G. candidum, substrate 35 mg/l
Method in brief: as §1

[3] = system: Kocuria rosea; set-up: key to RED (substrate reduced or not): RED indicates whether the substrate is reduced (Y) or not (N); RED indicates whether the substrate is reduced (Y) or not (N); key to Co (growth, absorbance at 660 nm) / Decol (substrate decolourized, decrease in absorbance) / Fluo (fluorescence multiplied by 2 relative to substrate-free control): The symbol “+” means good growth/decolourization/significant increase in fluorescence; The symbol “+/−” means difficult growth; The symbol “−” means that there is no growth/decolourization/significant increase in fluorescence; conditions: K. rosea, substrate 35 mg/l
Method in brief: as §1

[4] = system: Pseudomonas aeruginosa; set-up: key to RED (substrate reduced or not): RED indicates whether the substrate is reduced (Y) or not (N); RED indicates whether the substrate is reduced (Y) or not (N); key to Co (growth, absorbance at 660 nm) / Decol (substrate decolourized, decrease in absorbance) / Fluo (fluorescence multiplied by 2 relative to substrate-free control): The symbol “+” means good growth/decolourization/significant increase in fluorescence; The symbol “+/−” means difficult growth; The symbol “−” means that there is no growth/decolourization/significant increase in fluorescence; conditions: P. aeruginosa, substrate 35 mg/l
Method in brief: as §1

[5] = system: Staphylococcus epidermidis; set-up: key to RED (substrate reduced or not): RED indicates whether the substrate is reduced (Y) or not (N); RED indicates whether the substrate is reduced (Y) or not (N); key to Co (growth, absorbance at 660 nm) / Decol (substrate decolourized, decrease in absorbance) / Fluo (fluorescence multiplied by 2 relative to substrate-free control): The symbol “+” means good growth/decolourization/significant increase in fluorescence; The symbol “+/−” means difficult growth; The symbol “−” means that there is no growth/decolourization/significant increase in fluorescence; conditions: S. epidermidis, substrate 35 mg/l
Method in brief: as §1

[6] = system: Acinetobacter baumanii; set-up: key to RED (substrate reduced or not): RED indicates whether the substrate is reduced (Y) or not (N); RED indicates whether the substrate is reduced (Y) or not (N); key to Decol (substrate decolourized, decrease in absorbance) / Fluo (fluorescence multiplied by 2 relative to substrate-free control) / Co (growth, absorbance at 660 nm): The symbol “+” means good growth/decolourization/significant increase in fluorescence; The symbol “+/−” means difficult growth; The symbol “−” means that there is no growth/decolourization/significant increase in fluorescence; conditions: A. baumannii, substrate 35 mg/l
Method in brief: as §1

[7] = system: Enterococcus faecalis; set-up: key to RED (substrate reduced or not): RED indicates whether the substrate is reduced (Y) or not (N); RED indicates whether the substrate is reduced (Y) or not (N); key to Decol (substrate decolourized, decrease in absorbance) / Fluo (fluorescence multiplied by 2 relative to substrate-free control) / Co (growth, absorbance at 660 nm): The symbol “+” means good growth/decolourization/significant increase in fluorescence; The symbol “+/−” means difficult growth; The symbol “−” means that there is no growth/decolourization/significant increase in fluorescence; conditions: E. faecalis, substrate 35 mg/l
Method in brief: as §1

SMILES | Co (growth, absorbance at 660 nm) [1] | Decol (substrate decolourized, decrease in absorbance) [1] | Fluo (fluorescence multiplied by 2 relative to substrate-free control) [1] | RED (substrate reduced or not) [1] | Co (growth, absorbance at 660 nm) [2] | Decol (substrate decolourized, decrease in absorbance) [2] | Fluo (fluorescence multiplied by 2 relative to substrate-free control) [2] | RED (substrate reduced or not) [2] | Co (growth, absorbance at 660 nm) [3] | Decol (substrate decolourized, decrease in absorbance) [3] | Fluo (fluorescence multiplied by 2 relative to substrate-free control) [3] | Co (growth, absorbance at 660 nm) [4] | Decol (substrate decolourized, decrease in absorbance) [4] | Fluo (fluorescence multiplied by 2 relative to substrate-free control) [4] | RED (substrate reduced or not) [4] | Co (growth, absorbance at 660 nm) [5] | Decol (substrate decolourized, decrease in absorbance) [5] | Fluo (fluorescence multiplied by 2 relative to substrate-free control) [5] | RED (substrate reduced or not) [5] | Co (growth, absorbance at 660 nm) [6] | further results
CN(C)c1ccc(N=Nc2ccc(S(=O)(=O)[O-])cc2)cc1.[Na+] [Methyl orange] | + | − | − | N | + | − | − | N | − | − | − | + | − | − | N | + | − | − | N | + | Decol (substrate decolourized, decrease in absorbance) [6]: −; Fluo (fluorescence multiplied by 2 relative to substrate-free control) [6]: −; RED (substrate reduced or not) [6]: N; Co (growth, absorbance at 660 nm) [7]: +; Decol (substrate decolourized, decrease in absorbance) [7]: +; Fluo (fluorescence multiplied by 2 relative to substrate-free control) [7]: +; RED (substrate reduced or not) [7]: Y
CN(C)c1ccc(/N=N/c2ccccc2C(=O)O)cc1 [Methyl red] | + | + | + | Y | +/− | +/− | + | Y | +/− | +/− | + | + | +/− | + | Y | + | + | + | Y | + | RED (substrate reduced or not) [3]: Y; Decol (substrate decolourized, decrease in absorbance) [6]: +; Fluo (fluorescence multiplied by 2 relative to substrate-free control) [6]: +; RED (substrate reduced or not) [6]: Y; Co (growth, absorbance at 660 nm) [7]: +; Decol (substrate decolourized, decrease in absorbance) [7]: +; Fluo (fluorescence multiplied by 2 relative to substrate-free control) [7]: +; RED (substrate reduced or not) [7]: Y
O=S(=O)([O-])c1ccc(N=Nc2c(O)ccc3ccccc23)cc1.[Na+] [Orange II] | + | − | − | N | +/− | − | − | N | − | − | − | + | − | − | N | + | − | − | N | + | Decol (substrate decolourized, decrease in absorbance) [6]: −; Fluo (fluorescence multiplied by 2 relative to substrate-free control) [6]: −; RED (substrate reduced or not) [6]: N; Co (growth, absorbance at 660 nm) [7]: +; Decol (substrate decolourized, decrease in absorbance) [7]: +; Fluo (fluorescence multiplied by 2 relative to substrate-free control) [7]: +; RED (substrate reduced or not) [7]: Y
O=C([O-])C1=NN(c2ccc(S(=O)(=O)[O-])cc2)C(=O)C1/N=N/c1ccc(S(=O)(=O)[O-])cc1.[Na+].[Na+].[Na+] (stereo not shown) [Tartrazine] | + | − | − | N | +/− | − | − | N | − | − | − | + | − | − | N | + | − | − | N | + | Decol (substrate decolourized, decrease in absorbance) [6]: −; Fluo (fluorescence multiplied by 2 relative to substrate-free control) [6]: −; RED (substrate reduced or not) [6]: N; Co (growth, absorbance at 660 nm) [7]: +; Decol (substrate decolourized, decrease in absorbance) [7]: +; Fluo (fluorescence multiplied by 2 relative to substrate-free control) [7]: +/−; RED (substrate reduced or not) [7]: Y
